The source of these data is ChEMBL document CHEMBL3301562, “MMV Box screening against Plasmodium falciparum protein kinases and aminoacyl tRNA synthetases”.

Each structure is given as a SMILES string.

Common to all, as to format: functional
In assay [1] the target is T1, Mitogen-activated protein kinase (Plasmodium falciparum, UniProt Q25917).
T1 sequence (Q25917 whole entry): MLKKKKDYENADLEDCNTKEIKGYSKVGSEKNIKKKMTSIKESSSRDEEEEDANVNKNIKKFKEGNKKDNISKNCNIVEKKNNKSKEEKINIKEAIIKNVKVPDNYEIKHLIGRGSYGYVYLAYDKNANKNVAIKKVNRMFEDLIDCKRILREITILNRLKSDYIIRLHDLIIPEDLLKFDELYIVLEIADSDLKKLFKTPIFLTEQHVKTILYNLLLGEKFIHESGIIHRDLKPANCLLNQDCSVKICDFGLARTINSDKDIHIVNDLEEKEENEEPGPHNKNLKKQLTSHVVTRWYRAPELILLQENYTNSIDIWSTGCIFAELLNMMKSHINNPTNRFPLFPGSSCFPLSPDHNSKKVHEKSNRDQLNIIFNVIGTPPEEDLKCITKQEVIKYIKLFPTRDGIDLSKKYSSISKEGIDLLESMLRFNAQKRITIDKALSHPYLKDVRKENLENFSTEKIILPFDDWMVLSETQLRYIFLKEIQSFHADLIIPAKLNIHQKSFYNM
As to the kind of experiment: Final concentrations were 1 uM ATP, 0.5 mM DTT, 1 mM MgCl2, 0.5 mg/mL BSA, and 10 ug/ml MAP2 in a buffer of 50 mM HEPES (pH 7.0). 0.5 mg/mL histone III-S served as the substrate (13); 100 uM AMP-PNP, an ATP analog, was used as a control inhibitor. Incubation time was 4 hours.

Assay [2] has as its target T2, Putative uncharacterized protein pk7 (Plasmodium falciparum, UniProt O96214).
T2 sequence (O96214 whole entry): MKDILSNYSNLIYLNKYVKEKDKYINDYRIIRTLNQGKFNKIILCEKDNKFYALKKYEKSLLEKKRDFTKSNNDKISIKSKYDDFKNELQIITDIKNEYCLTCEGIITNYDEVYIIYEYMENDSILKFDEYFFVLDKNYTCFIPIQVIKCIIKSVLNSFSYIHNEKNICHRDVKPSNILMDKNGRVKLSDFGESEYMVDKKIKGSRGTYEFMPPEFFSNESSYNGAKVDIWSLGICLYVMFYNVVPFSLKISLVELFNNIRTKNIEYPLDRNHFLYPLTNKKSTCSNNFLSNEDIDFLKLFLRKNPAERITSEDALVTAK
As to the kind of experiment: Final concentrations were 1 uM ATP, 2 mM DTT, 20 mM MgCl2, 2 mM MnCl2, 0.01% BSA, and 6 ug/ml PK7, in a buffer of 20 mM Tris-HCl (pH 7.5). The enzyme itself was the only substrate present (since autophosphorylation occurs); 100 uM 1NA-PP1 was used as a control inhibitor. Incubation time was 3 hours.

The target of a further assay is T3, Proline--tRNA ligase (Plasmodium falciparum (isolate 3D7), UniProt Q8I5R7).
T3 sequence (Q8I5R7 whole entry): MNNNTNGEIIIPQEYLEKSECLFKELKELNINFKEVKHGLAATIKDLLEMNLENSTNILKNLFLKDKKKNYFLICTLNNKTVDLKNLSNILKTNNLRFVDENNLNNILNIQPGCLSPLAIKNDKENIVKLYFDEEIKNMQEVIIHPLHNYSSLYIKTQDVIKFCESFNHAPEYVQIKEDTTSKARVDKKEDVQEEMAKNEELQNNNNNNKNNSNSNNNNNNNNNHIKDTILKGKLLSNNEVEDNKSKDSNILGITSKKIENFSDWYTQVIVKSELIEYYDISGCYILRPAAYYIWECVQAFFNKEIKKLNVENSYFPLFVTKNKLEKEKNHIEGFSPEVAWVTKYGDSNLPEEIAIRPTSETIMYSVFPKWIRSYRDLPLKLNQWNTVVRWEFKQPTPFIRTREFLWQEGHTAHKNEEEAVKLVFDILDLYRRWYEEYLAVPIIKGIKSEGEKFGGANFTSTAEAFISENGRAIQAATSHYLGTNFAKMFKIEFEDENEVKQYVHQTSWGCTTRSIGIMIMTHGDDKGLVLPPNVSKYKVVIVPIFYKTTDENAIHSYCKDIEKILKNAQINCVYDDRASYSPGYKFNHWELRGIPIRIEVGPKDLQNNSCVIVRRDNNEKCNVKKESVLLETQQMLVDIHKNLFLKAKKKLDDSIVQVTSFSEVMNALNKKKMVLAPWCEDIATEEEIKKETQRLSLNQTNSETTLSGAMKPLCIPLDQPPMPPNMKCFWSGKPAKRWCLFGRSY
As to the kind of experiment: MMV: ProRS recombinant Plasmodium falciparum Prolyl-tRNA-synthetase, assay with yeast tRNA, ATP, and proline and 3 uM MMV malaria box compound, assay read out with kinase glo as % inhibition.

In assay [3] the target is T4, Cdk-related protein kinase 6 (Plasmodium falciparum, UniProt O77239).
T4 sequence (O77239 whole entry): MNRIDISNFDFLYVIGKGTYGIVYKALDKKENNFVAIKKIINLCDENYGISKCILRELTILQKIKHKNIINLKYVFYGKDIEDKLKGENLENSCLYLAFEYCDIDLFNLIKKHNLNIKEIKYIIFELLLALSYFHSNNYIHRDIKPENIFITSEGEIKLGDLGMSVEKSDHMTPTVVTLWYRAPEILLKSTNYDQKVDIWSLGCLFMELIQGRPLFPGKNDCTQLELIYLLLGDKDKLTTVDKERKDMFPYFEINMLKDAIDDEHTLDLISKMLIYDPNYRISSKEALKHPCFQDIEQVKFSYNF
As to the kind of experiment: Final concentrations were 1.5 uM ATP, 5 mM MnCl2, and 15 ug/ml PK6 in a buffer of 100 mM Tris-HCl (pH 7.5). 50 ug/mL MBP was provided as the substrate; 10 uM staurosporine was used as a control inhibitor. Incubation time was 3 hours and 40 minutes.The catalytic activity of each kinase was considered proportional to ATP consumed, as determined from measurements of residual [ATP] with the luciferase-based reagent Kinase-Glo (Promega) following incubation. Luminescence (proportional to residual [ATP]) was measured on the plate readers FLx800 (BioTek Instruments, Winooski, VT, USA) and MicroBeta2. (In general: In Kinase-Glo more light means more ATP remaining.)

Assay [4] has as its target Calcium-dependent protein kinase 1 (Plasmodium falciparum, UniProt P62344). As to the kind of experiment: MMV: CDPK1 Protein kinase inhibition assay using recombinant PfCDPK1, syntide 2 peptide substrate, ATP and KinaseGlo to measure % inhibition at 1 uM MMV box compound.
A further assay addresses Lysine--tRNA ligase (Plasmodium falciparum (isolate 3D7), UniProt Q8IDJ8). As to the kind of experiment: MMV: KRS recombinant Plasmodium falciparum Lysyl-tRNA-synthetase, assay with yeast tRNA, ATP, and lysine and 3 uM MMV malaria box compound, assay read out with kinase glo as % inhibition.
Assay [5] concerns the target T5, Calcium-dependent protein kinase 4 (Plasmodium falciparum (isolate 3D7), UniProt Q8IBS5).
T5 sequence (Q8IBS5 whole entry): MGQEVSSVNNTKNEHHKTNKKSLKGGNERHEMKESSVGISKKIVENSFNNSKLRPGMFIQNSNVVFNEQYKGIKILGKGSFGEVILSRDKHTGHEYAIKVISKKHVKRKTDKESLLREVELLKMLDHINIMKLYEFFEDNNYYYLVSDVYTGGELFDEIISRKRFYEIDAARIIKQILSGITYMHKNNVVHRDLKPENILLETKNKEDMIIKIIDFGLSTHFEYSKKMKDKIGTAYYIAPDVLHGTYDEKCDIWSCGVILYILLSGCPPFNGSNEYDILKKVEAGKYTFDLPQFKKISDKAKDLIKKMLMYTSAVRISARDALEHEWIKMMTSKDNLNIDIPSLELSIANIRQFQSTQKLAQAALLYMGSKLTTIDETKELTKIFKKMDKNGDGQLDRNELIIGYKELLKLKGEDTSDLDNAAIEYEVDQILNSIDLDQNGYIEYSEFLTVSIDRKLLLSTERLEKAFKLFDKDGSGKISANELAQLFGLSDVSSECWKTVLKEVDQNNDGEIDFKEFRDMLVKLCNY
As to the kind of experiment: MMV: CDPK4 Protein kinase inhibition assay using recombinant PfCDPK4, syntide2 peptide substrate, ATP and KinaseGlo to measure % inhibition at 1 uM MMV box compound.

Lysine--tRNA ligase, sequence (Q8IDJ8 whole entry): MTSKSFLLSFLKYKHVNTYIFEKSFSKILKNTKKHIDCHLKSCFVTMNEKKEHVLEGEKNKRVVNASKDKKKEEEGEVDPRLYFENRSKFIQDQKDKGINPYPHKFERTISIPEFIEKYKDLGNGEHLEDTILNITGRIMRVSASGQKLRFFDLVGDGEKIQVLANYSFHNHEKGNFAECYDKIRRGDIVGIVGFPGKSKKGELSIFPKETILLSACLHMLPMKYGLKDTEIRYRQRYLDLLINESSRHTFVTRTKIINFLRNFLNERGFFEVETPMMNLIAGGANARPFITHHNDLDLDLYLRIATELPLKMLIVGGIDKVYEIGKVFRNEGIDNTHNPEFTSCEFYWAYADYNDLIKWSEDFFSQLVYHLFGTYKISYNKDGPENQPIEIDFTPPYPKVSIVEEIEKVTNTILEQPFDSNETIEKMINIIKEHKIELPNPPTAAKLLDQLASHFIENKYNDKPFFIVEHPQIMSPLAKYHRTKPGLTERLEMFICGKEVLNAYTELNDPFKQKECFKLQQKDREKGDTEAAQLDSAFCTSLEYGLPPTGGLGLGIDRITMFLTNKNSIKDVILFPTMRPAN
Calcium-dependent protein kinase 1, sequence (P62344 whole entry): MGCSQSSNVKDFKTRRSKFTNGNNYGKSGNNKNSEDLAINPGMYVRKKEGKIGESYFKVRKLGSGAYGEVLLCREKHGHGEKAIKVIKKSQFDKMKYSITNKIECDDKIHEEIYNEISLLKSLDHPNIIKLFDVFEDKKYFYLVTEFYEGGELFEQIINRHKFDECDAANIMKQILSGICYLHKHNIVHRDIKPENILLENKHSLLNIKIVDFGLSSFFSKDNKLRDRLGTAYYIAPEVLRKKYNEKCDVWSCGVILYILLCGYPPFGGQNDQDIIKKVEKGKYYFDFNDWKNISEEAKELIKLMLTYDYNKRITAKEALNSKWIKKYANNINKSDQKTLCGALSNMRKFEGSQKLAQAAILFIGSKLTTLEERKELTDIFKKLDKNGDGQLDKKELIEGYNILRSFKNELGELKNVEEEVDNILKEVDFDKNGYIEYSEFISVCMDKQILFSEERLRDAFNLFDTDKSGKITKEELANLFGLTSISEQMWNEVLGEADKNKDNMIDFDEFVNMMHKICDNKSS

With `Nc1nc(Nc2cccc(F)c2)nc2ccccc12`, the half-inhibitory concentration (IC50) (as a rule, the point on the concentration scale where inhibition reaches its midpoint) in assay [1] is more than 1000 nM; in assay [2], more than 1000 nM; on Proline--tRNA ligase it was more than 2500 nM; in assay [3], more than 1000 nM; in assay [4], more than 1000 nM; on Lysine--tRNA ligase, more than 2500 nM. Moreover, in assay [5], the half-inhibitory concentration (IC50) was more than 1000 nM.
In the case of `O=C(NC1CCN(Cc2ccccc2)CC1)c1cc2nc(-c3ccc(Cl)s3)cc(C(F)(F)F)n2n1`, the IC50 was more than 1000 nM in assay [1]; more than 1000 nM in assay [2]; more than 2500 nM at Proline--tRNA ligase; more than 1000 nM in assay [3]; more than 1000 nM in assay [4]; more than 2500 nM on Lysine--tRNA ligase. Also, the IC50 in assay [5] is more than 1000 nM.
Turning to `Cc1sc(NC(=O)c2ccccc2)c(C(c2cccs2)N2CCN(c3ccccc3)CC2)c1C` (stereo not drawn), the IC50 in assay [1] is more than 1000 nM; in assay [2] it was more than 1000 nM; at Proline--tRNA ligase it was more than 2500 nM; in assay [3] it was more than 1000 nM; in assay [4] it was more than 1000 nM; at Lysine--tRNA ligase, more than 2500 nM. In assay [5], the IC50 was more than 1000 nM.
As for `CCOc1ccc(N2C(N)=NC(N)=NC2(C)C)cc1`, the IC50 in assay [1] was more than 1000 nM; in assay [2] it was more than 1000 nM; on Proline--tRNA ligase, more than 2500 nM; in assay [3], more than 1000 nM; in assay [4], more than 1000 nM; on Lysine--tRNA ligase it was more than 2500 nM. In addition, the IC50 in assay [5] is more than 1000 nM.
Regarding `COc1cccc(Nc2nc(N)c3ccccc3n2)c1`, the IC50 is more than 1000 nM in assay [1]; more than 1000 nM in assay [2]; more than 2500 nM on Proline--tRNA ligase; more than 1000 nM in assay [3]; more than 1000 nM in assay [4]; more than 2500 nM at Lysine--tRNA ligase. For the same molecule, the IC50 in assay [5] was more than 1000 nM.
`O=C(CCl)NCCOc1ccc(Cl)cc1Cl`: the IC50 was more than 1000 nM in assay [1]; more than 1000 nM in assay [2]; more than 2500 nM on Proline--tRNA ligase; more than 1000 nM in assay [3]; more than 1000 nM in assay [4]; more than 2500 nM at Lysine--tRNA ligase. Moreover, in assay [5], the IC50 is more than 1000 nM.
For `Oc1ccc(-c2nc(-c3ccc4oc5ccc(-c6[nH]c(-c7ccc(O)cc7)nc6-c6ccccc6)cc5c4c3)c(-c3ccccc3)[nH]2)cc1`, the IC50 is more than 1000 nM in assay [1]; more than 1000 nM in assay [2]; more than 2500 nM on Proline--tRNA ligase; more than 1000 nM in assay [3]; more than 1000 nM in assay [4]; more than 2500 nM on Lysine--tRNA ligase. Moreover, the IC50 in assay [5] is more than 1000 nM.
Turning to `CCOC(=O)c1cnc2ccc(OC)cc2c1Nc1ccc(N2CCN(C)CC2)cc1`, the IC50 in assay [1] was more than 1000 nM; in assay [2], more than 1000 nM; at Proline--tRNA ligase, more than 2500 nM; in assay [3], more than 1000 nM; in assay [4] it was more than 1000 nM; on Lysine--tRNA ligase, more than 2500 nM. For the same molecule, in assay [5], the IC50 was more than 1000 nM.
Turning to `CN1C=C(c2ccc3ccccc3n2)C(c2c[nH]c3ccccc23)c2ccccc21` (stereo not drawn), the IC50 in assay [1] was more than 1000 nM; in assay [2] it was more than 1000 nM; on Proline--tRNA ligase, more than 2500 nM; in assay [3], more than 1000 nM; in assay [4] it was more than 1000 nM; at Lysine--tRNA ligase, more than 2500 nM. The IC50 in assay [5] was more than 1000 nM.
For the molecule `OC(CNC1CCCCC1)Cn1c2ccc(I)cc2c2cc(I)ccc21` (stereo not drawn), the IC50 in assay [1] is more than 1000 nM; in assay [2] it was more than 1000 nM; at Proline--tRNA ligase it was more than 2500 nM; in assay [3], more than 1000 nM; in assay [4], more than 1000 nM; on Lysine--tRNA ligase, more than 2500 nM. Further, the IC50 in assay [5] was more than 1000 nM.
`Oc1ccc(Br)cc1CN1CCN(Cc2ccc(Cl)cc2)CC1`: the IC50 in assay [1] is more than 1000 nM; in assay [2], more than 1000 nM; on Proline--tRNA ligase, more than 2500 nM; in assay [3] it was more than 1000 nM; in assay [4] it was more than 1000 nM; on Lysine--tRNA ligase it was more than 2500 nM. Moreover, in assay [5], the IC50 is more than 1000 nM.
On to `CCOC(=O)c1cnc2ccc(OC)cc2c1NCc1ccccc1`, for which the IC50 is more than 1000 nM in assay [1]; more than 1000 nM in assay [2]; more than 2500 nM at Proline--tRNA ligase; more than 1000 nM in assay [3]; more than 1000 nM in assay [4]; more than 2500 nM at Lysine--tRNA ligase. The IC50 in assay [5] was more than 1000 nM.
Turning to `CC(C)(C)c1ccc(C2CC3=Nc4ccccc4N(C(=O)c4ccccc4Cl)C(c4ccc(F)cc4)C3=C(O)C2)cc1` (stereo not drawn), the IC50 is more than 1000 nM in assay [1]; more than 1000 nM in assay [2]; more than 2500 nM at Proline--tRNA ligase; more than 1000 nM in assay [3]; more than 1000 nM in assay [4]; more than 2500 nM on Lysine--tRNA ligase. Moreover, in assay [5], the IC50 is more than 1000 nM.
With `CN1CCN(c2nc(Nc3ccc(O)cc3)nc3ccccc23)CC1`, the IC50 is more than 1000 nM in assay [1]; more than 1000 nM in assay [2]; more than 2500 nM on Proline--tRNA ligase; more than 1000 nM in assay [3]; more than 1000 nM in assay [4]; more than 2500 nM on Lysine--tRNA ligase. In addition, the IC50 in assay [5] was more than 1000 nM.
